Paper PMC8162404, “Proteomimetic surface fragments distinguish targets by function” (Chemical Science, 2020)
Like-named read-outs stand apart in the source and are kept apart here.

Molecular target: T1, Gal-1 (Homo sapiens, UniProt P09382)
T1 construct: made in house; host or cells: E. coli BL21(DE3)
Test: Pull-down assay with immobilized protein and LSM libraries
Assay type: binding
Conditions: 1:1 binding assumed, read-out: Surface mapping KD (apparent)
Experimental: Pull-down assays with immobilized test proteins and foldameric LSM libraries were carried out. Proteins were equilibrated with LSM probes, and equilibrium bound fractions (FB) were determined from the unbound fractions measured by HPLC-MS methods. Hits were corrected with background binding of the resin. The protocol allowed all binding events to equilibrate irrespective of affinity, specificity, and binding kinetics. This was essential to judge overall druggability and promiscuity. Importantly, the concentration of protein and the total concentration of foldameric LSMs were equimolar, which minimized competition between the probes. This experimental setup approximated independent binding of individual library members. Results were visualized as heat maps of dissociation constants (Fig. 3).
Pull-down assay and data analysis
Pull-down assay. LSM sublibraries were screened separately as previously described.(2) Experiments were performed in the following buffers: (i) 20 mM pH 7.4 HEPES, 150 mM NaCl, 5 mM CaCl2 for CaM; (ii) 50 mM pH 7.4 HEPES, 150 mM NaCl, 1 mM TCEP, 1 mM CaCl2 for S100 proteins; (iii) 20 mM pH 7.4 HEPES, 150 mM NaCl, 1 mM TCEP for Gal-1 and (iv) 20 mM pH 7.4 HEPES, 150 mM NaCl for RecQ-WH. Assays were performed in paper filter spin cups (Thermo Scientific) with sample volumes of 100 µl. Hexahistidine-tagged proteins were immobilized on previously washed Co-NTA resin (TALON, Takara Bio USA, Inc., Mountain View, CA) in 64 µM final concentration. LSM sublibrary was added, in which each of the 64 library members were used at a concentration of 1 µM. Samples were incubated at room temperature for 30 min with shaking at 100 rpm. Then, samples were centrifuged at 1000 rpm for 2 min and washed with 100 µl pull-down buffer to remove unbound compounds.
The control experiments were performed using the same compounds and the resin but without the immobilized protein. In case of competitive assays, competitor peptides were added to LSM sublibrary samples in 200 µM final concentration. In the case of Gal-1, lactose (competitor) was used in a concentration of 10 mM. Experiments were performed at least twice. Mean […]
LC-MS methods and parameters. HPLC/ESI-MS analysis was used to characterize the samples from the pull-down assay. LC-MS analysis was performed with a Thermo Scientific Dionex UltiMate 3000 HPLC system interfaced to an LTQ ion trap mass spectrometer (Thermo Electron Corp., San Jose, CA, USA). Samples were injected onto an Aeris Widepore XB-C18 (250 x 4.6 mm) analytical HPLC column using gradient elution 5-80 % solution B during 25 minutes. For pull-down samples, eluent composition was 0.1% acetic acid in distilled water (Solution A) and 0.1% acetic acid in acetonitrile (solution B). Mass spectra were acquired in full scan mode from 200 to 2000 m/z range. For overlapping peaks, selective reaction monitoring (SRM) was […]
MS data analysis. Thermo Xcalibur 2.2 software was used for peak identification and integration. The majority of the foldameric fragments could be resolved independently via HPLC-MS/MS measurements based on molecular weight, MS fragmentation pattern and retention time. Peaks of some foldamers with β3-hIle or β3-hLeu in position R2 could not be resolved, these were integrated and averaged. In the processing method, each sample component was associated to a chromatographic peak based on previously identified mass (m/z) and retention time (ref (2) and Table S7-10). Using ICIS peak detection algorithm, the general detection and integration criteria were: smoothing points: 5, baseline window: 80, area noise factor: 5, peak noise factor: 10. Using these processing setups, all raw data files were reprocessed together and analyzed. Errors in peak identification during the automatic processing were corrected manually.
Calculation of the discussed parameters
1. Bound fractions (FB.) were calculated from the HPLC-MS intensity loss of the LSM probes compared to the control where no protein was immobilized to the resin: […]

T1 sequence (P09382 whole entry): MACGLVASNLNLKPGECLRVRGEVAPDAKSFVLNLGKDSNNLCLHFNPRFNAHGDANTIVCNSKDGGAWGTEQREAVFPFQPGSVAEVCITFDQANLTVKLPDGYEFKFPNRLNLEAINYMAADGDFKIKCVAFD

SMILES | Kd (H12 library) | Kd (H14 library)
CC[C@H](C)[C@@H](CC(=O)N[C@H]1CCC[C@@H]1C(=O)N[C@H]1CCC[C@@H]1C(N)=O)NC(=O)[C@H]1CCC[C@@H]1NC(=O)[C@H]1CCC[C@@H]1NC(=O)C[C@H](CCC(=O)O)NC(=O)[C@H]1CCC[C@@H]1NC(=O)[C@H]1CCC[C@@H]1N [H12 EI] | 244 µM | –
NCCCC[C@@H](CC(=O)N[C@H]1CCC[C@@H]1C(=O)N[C@H]1CCC[C@@H]1C(N)=O)NC(=O)[C@H]1CCC[C@@H]1NC(=O)[C@H]1CCC[C@@H]1NC(=O)C[C@H](CCC(=O)O)NC(=O)[C@H]1CCC[C@@H]1NC(=O)[C@H]1CCC[C@@H]1N [H12 EK] | 200 µM | –
CC(C)C[C@@H](CC(=O)N[C@H]1CCC[C@@H]1C(=O)N[C@H]1CCC[C@@H]1C(N)=O)NC(=O)[C@H]1CCC[C@@H]1NC(=O)[C@H]1CCC[C@@H]1NC(=O)C[C@H](CCC(=O)O)NC(=O)[C@H]1CCC[C@@H]1NC(=O)[C@H]1CCC[C@@H]1N [H12 EL] | 244 µM | –
CSCC[C@@H](CC(=O)N[C@H]1CCC[C@@H]1C(=O)N[C@H]1CCC[C@@H]1C(N)=O)NC(=O)[C@H]1CCC[C@@H]1NC(=O)[C@H]1CCC[C@@H]1NC(=O)C[C@H](CCC(=O)O)NC(=O)[C@H]1CCC[C@@H]1NC(=O)[C@H]1CCC[C@@H]1N [H12 EM] | 251 µM | –
NC(=O)CC[C@@H](CC(=O)N[C@H]1CCC[C@@H]1C(=O)N[C@H]1CCC[C@@H]1C(N)=O)NC(=O)[C@H]1CCC[C@@H]1NC(=O)[C@H]1CCC[C@@H]1NC(=O)C[C@H](CCC(=O)O)NC(=O)[C@H]1CCC[C@@H]1NC(=O)[C@H]1CCC[C@@H]1N [H12 EQ] | 236 µM | –
NC(=O)[C@H]1CCC[C@@H]1NC(=O)[C@H]1CCC[C@@H]1NC(=O)C[C@H](CO)NC(=O)[C@H]1CCC[C@@H]1NC(=O)[C@H]1CCC[C@@H]1NC(=O)C[C@H](CCC(=O)O)NC(=O)[C@H]1CCC[C@@H]1NC(=O)[C@H]1CCC[C@@H]1N [H12 ES] | 289 µM | –
C[C@@H](O)[C@@H](CC(=O)N[C@H]1CCC[C@@H]1C(=O)N[C@H]1CCC[C@@H]1C(N)=O)NC(=O)[C@H]1CCC[C@@H]1NC(=O)[C@H]1CCC[C@@H]1NC(=O)C[C@H](CCC(=O)O)NC(=O)[C@H]1CCC[C@@H]1NC(=O)[C@H]1CCC[C@@H]1N [H12 ET] | 372 µM | –
CC(C)[C@@H](CC(=O)N[C@H]1CCC[C@@H]1C(=O)N[C@H]1CCC[C@@H]1C(N)=O)NC(=O)[C@H]1CCC[C@@H]1NC(=O)[C@H]1CCC[C@@H]1NC(=O)C[C@H](CCC(=O)O)NC(=O)[C@H]1CCC[C@@H]1NC(=O)[C@H]1CCC[C@@H]1N [H12 EV] | 316 µM | –
NC(=O)[C@H]1CCC[C@@H]1NC(=O)[C@H]1CCC[C@@H]1NC(=O)C[C@H](Cc1c[nH]c2ccccc12)NC(=O)[C@H]1CCC[C@@H]1NC(=O)[C@H]1CCC[C@@H]1NC(=O)C[C@H](CCC(=O)O)NC(=O)[C@H]1CCC[C@@H]1NC(=O)[C@H]1CCC[C@@H]1N [H12 EW] | 235 µM | –
NC(=O)[C@H]1CCC[C@@H]1NC(=O)[C@H]1CCC[C@@H]1NC(=O)C[C@H](Cc1ccc(O)cc1)NC(=O)[C@H]1CCC[C@@H]1NC(=O)[C@H]1CCC[C@@H]1NC(=O)C[C@H](CCC(=O)O)NC(=O)[C@H]1CCC[C@@H]1NC(=O)[C@H]1CCC[C@@H]1N [H12 EY] | 260 µM | –
CC[C@H](C)[C@@H](CC(=O)N[C@H]1CCC[C@@H]1C(=O)N[C@H]1CCC[C@@H]1C(=O)N[C@@H](CC(=O)O)CC(=O)N[C@H]1CCC[C@@H]1C(=O)N[C@H]1CCC[C@@H]1C(N)=O)NC(=O)[C@H]1CCC[C@@H]1NC(=O)[C@H]1CCC[C@@H]1N [H12 ID] | 462 µM | –
CC[C@H](C)[C@@H](CC(=O)N[C@H]1CCC[C@@H]1C(=O)N[C@H]1CCC[C@@H]1C(=O)N[C@@H](CC(N)=O)CC(=O)N[C@H]1CCC[C@@H]1C(=O)N[C@H]1CCC[C@@H]1C(N)=O)NC(=O)[C@H]1CCC[C@@H]1NC(=O)[C@H]1CCC[C@@H]1N [H12 IN] | 401 µM | –
CC[C@H](C)[C@@H](CC(=O)N[C@H]1CCC[C@@H]1C(=O)N[C@H]1CCC[C@@H]1C(=O)N[C@@H](CCC(N)=O)CC(=O)N[C@H]1CCC[C@@H]1C(=O)N[C@H]1CCC[C@@H]1C(N)=O)NC(=O)[C@H]1CCC[C@@H]1NC(=O)[C@H]1CCC[C@@H]1N [H12 IQ] | 446 µM | –
NCCCC[C@@H](CC(=O)N[C@H]1CCC[C@@H]1C(=O)N[C@H]1CCC[C@@H]1C(=O)N[C@@H](CCC(=O)O)CC(=O)N[C@H]1CCC[C@@H]1C(=O)N[C@H]1CCC[C@@H]1C(N)=O)NC(=O)[C@H]1CCC[C@@H]1NC(=O)[C@H]1CCC[C@@H]1N [H12 KE] | 212 µM | –
CC(C)C[C@@H](CC(=O)N[C@H]1CCC[C@@H]1C(=O)N[C@H]1CCC[C@@H]1C(=O)N[C@@H](CC(=O)O)CC(=O)N[C@H]1CCC[C@@H]1C(=O)N[C@H]1CCC[C@@H]1C(N)=O)NC(=O)[C@H]1CCC[C@@H]1NC(=O)[C@H]1CCC[C@@H]1N [H12 LD] | 470 µM | –
CC(C)C[C@@H](CC(=O)N[C@H]1CCC[C@@H]1C(=O)N[C@H]1CCC[C@@H]1C(=O)N[C@@H](CCC(=O)O)CC(=O)N[C@H]1CCC[C@@H]1C(=O)N[C@H]1CCC[C@@H]1C(N)=O)NC(=O)[C@H]1CCC[C@@H]1NC(=O)[C@H]1CCC[C@@H]1N [H12 LE] | 335 µM | –
NCCCC[C@@H](CC(=O)N[C@H]1CCC[C@@H]1C(=O)N[C@H]1CCC[C@@H]1C(N)=O)NC(=O)[C@H]1CCC[C@@H]1NC(=O)[C@H]1CCC[C@@H]1NC(=O)C[C@H](CC(N)=O)NC(=O)[C@H]1CCC[C@@H]1NC(=O)[C@H]1CCC[C@@H]1N [H12 NK] | 430 µM | –
N=C(N)NCCC[C@@H](CC(=O)N[C@H]1CCC[C@@H]1C(=O)N[C@H]1CCC[C@@H]1C(=O)N[C@@H](CC(=O)O)CC(=O)N[C@H]1CCC[C@@H]1C(=O)N[C@H]1CCC[C@@H]1C(N)=O)NC(=O)[C@H]1CCC[C@@H]1NC(=O)[C@H]1CCC[C@@H]1N [H12 RD] | 250 µM | –
N=C(N)NCCC[C@@H](CC(=O)N[C@H]1CCC[C@@H]1C(=O)N[C@H]1CCC[C@@H]1C(=O)N[C@@H](CO)CC(=O)N[C@H]1CCC[C@@H]1C(=O)N[C@H]1CCC[C@@H]1C(N)=O)NC(=O)[C@H]1CCC[C@@H]1NC(=O)[C@H]1CCC[C@@H]1N [H12 RS] | 242 µM | –
CC(C)[C@@H](CC(=O)N[C@H]1CCC[C@@H]1C(=O)N[C@H]1CCC[C@@H]1C(=O)N[C@@H](CC(=O)O)CC(=O)N[C@H]1CCC[C@@H]1C(=O)N[C@H]1CCC[C@@H]1C(N)=O)NC(=O)[C@H]1CCC[C@@H]1NC(=O)[C@H]1CCC[C@@H]1N [H12 VD] | 480 µM | –
CC(C)[C@@H](CC(=O)N[C@H]1CCC[C@@H]1C(=O)N[C@H]1CCC[C@@H]1C(=O)N[C@@H](CCC(=O)O)CC(=O)N[C@H]1CCC[C@@H]1C(=O)N[C@H]1CCC[C@@H]1C(N)=O)NC(=O)[C@H]1CCC[C@@H]1NC(=O)[C@H]1CCC[C@@H]1N [H12 VE] | 469 µM | –
CC(C)[C@@H](CC(=O)N[C@H]1CCC[C@@H]1C(=O)N[C@H]1CCC[C@@H]1C(=O)N[C@@H](CC(N)=O)CC(=O)N[C@H]1CCC[C@@H]1C(=O)N[C@H]1CCC[C@@H]1C(N)=O)NC(=O)[C@H]1CCC[C@@H]1NC(=O)[C@H]1CCC[C@@H]1N [H12 VN] | 497 µM | –
CC(C)[C@@H](CC(=O)N[C@H]1CCC[C@@H]1C(=O)N[C@H]1CCC[C@@H]1C(=O)N[C@@H](CO)CC(=O)N[C@H]1CCC[C@@H]1C(=O)N[C@H]1CCC[C@@H]1C(N)=O)NC(=O)[C@H]1CCC[C@@H]1NC(=O)[C@H]1CCC[C@@H]1N [H12 VS] | 408 µM | –
CC(C)[C@@H](CC(=O)N[C@H]1CCC[C@@H]1C(=O)N[C@H]1CCC[C@@H]1C(=O)N[C@H](CC(=O)N[C@H]1CCC[C@@H]1C(=O)N[C@H]1CCC[C@@H]1C(N)=O)[C@@H](C)O)NC(=O)[C@H]1CCC[C@@H]1NC(=O)[C@H]1CCC[C@@H]1N [H12 VT] | 432 µM | –
C[C@@H](CC(=O)N[C@H]1CCCC[C@@H]1C(=O)N[C@H]1CCCC[C@@H]1C(=O)N[C@@H](CC(=O)O)CC(=O)N[C@H]1CCCC[C@@H]1C(N)=O)NC(=O)[C@H]1CCCC[C@@H]1N [H14 AD] | – | 168 µM
